Laboratory results: US20230331673A1, “COMPOSITION OF COMPOUNDS THAT MODULATE CELL METABOLISM AND METHODS OF USE” (CRESCENTA BIOSCIENCES, priority 2020, published 2023)

Test system: differentiated 3T3-L1 mouse adipocyte cells
Experiment: Adipocyte glucose consumption in differentiated 3T3-L1 mouse adipocyte cells (loss of glucose from medium, colorimetric)
Type: cell-based
Settings: compound 10 μM, 22 to 24 hours, differentiated 3T3-L1 adipocytes, compound/DMSO, read-out: Glucose consumption (fold change) Mean
Procedure: Activity of compounds on adipocyte glucose consumption was tested in differentiated 3T3-L1 mouse adipocyte cells. 3T3-L1 preadipocytes (ATCC) were routinely cultured in a growth medium composed of DMEM high-glucose (Sigma), 10% FBS (Gibco), 10 U/ml penicillin and 10 μg/ml streptomycin (P/S; Gibco). To induce adipogenic differentiation, a confluent layer of 3T3-L1 cells were incubated with the growth medium containing 2 μM rosiglitazone, 1 μM dexamethasone, 500 μM IBMX, and 1 μg/ml insulin (Sigma). Forty-eight (48) hours later (on day 2) and on days 4 and 6, medium of the cells was replaced with fresh medium containing 1 μg/ml insulin. On days 8 and 10, the medium was refreshed with regular growth medium and addition of insulin was omitted. On day 11 or 12, medium of the cells were replaced with fresh medium containing either the indicated compounds (10 μM) or the vehicle in which the compounds were dissolved (DMSO). The final concentration of DMSO was 0.1% (v/v). Growth medium containing 0.1% DMSO was incubated in culture wells containing no cells and used as control. Twenty-two to 24 hours later, medium was harvested and subjected to centrifugation at 10,000 g for 5 min. Glucose concentration in the supernatants was determined using a colorimetric assay (Glucose Assay Kit I, Eton Biosciences). Glucose consumption in compound and vehicle treated cells was measured as loss of glucose from the culture medium and represented as mean fold change (compound/DMSO) t standard deviation (SD).

Row | SMILES | fold induction at 10 µM
1 | CCCCC1CCCc2c(n(Cc3ccccc3F)c3c(C(=O)O)cccc23)C1 (stereo not shown) [7-butyl-5-[(2-fluorophenyl)methyl]-5H,6H,7H,8H,9H,10H-cyclohepta[b]indole-4-carboxylic acid] | 1.11
2 | CCCCCCC1CCCc2c(n(Cc3ccccc3F)c3c(C(=O)O)cccc23)C1 (stereo not shown) [5-[(2-fluorophenyl)methyl]-7-hexyl-5H,6H,7H,8H,9H,10H-cyclohepta[b]indole-4-carboxylic acid] | 1.17
3 | CCCCC1CCc2c(c3cccc(C(=O)O)c3n2Cc2cccc(C#N)c2)C1 (stereo not shown) [3-butyl-9-[(3-cyanophenyl)methyl]-2,3,4,9-tetrahydro-1H-carbazole-8-carboxylic acid] | 1.14
4 | N#Cc1cccc(Cn2c3c(c4cccc(C(=O)O)c42)CCCC(CCc2ccccc2)C3)c1 (stereo not shown) [5-[(3-cyanophenyl)methyl]-7-(2-phenylethyl)-5H,6H,7H,8H,9H,10H-cyclohepta[b]indole-4-carboxylic acid] | 1.02
5 | CCCCC1CCCc2c1n(Cc1cccc(C(N)=O)c1)c1c(C(=O)O)cccc21 (stereo not shown) [1-butyl-9-[(3-carbamoylphenyl)methyl]-2,3,4,9-tetrahydro-1H-carbazole-8-carboxylic acid] | 1.02
6 | CCCCCC1CCc2c(n(Cc3cccc(C#N)c3)c3c(C(=O)O)cccc23)C1 (stereo not shown) [9-[(3-cyanophenyl)methyl]-2-pentyl-2,3,4,9-tetrahydro-1H-carbazole-8-carboxylic acid] | 1.34
7 | CCCCCC1CCCCc2c1c1cccc(C(=O)O)c1n2Cc1cccc(C#N)c1 (stereo not shown) [5-[(3-cyanophenyl)methyl]-10-pentyl-5H,6H,7H,8H,9H,10H-cyclohepta[b]indole-4-carboxylic acid] | 1.2
8 | N#Cc1cccc(Cn2c3c(c4cccc(C(=O)O)c42)C(CCc2ccccc2)CCC3)c1 (stereo not shown) [9-[(3-cyanophenyl)methyl]-4-(2-phenylethyl)-2,3,4,9-tetrahydro-1H-carbazole-8-carboxylic acid] | 1.1
9 | CCCCCCC1CCCc2c(n(Cc3cccc(C#N)c3)c3c(C(=O)O)cccc23)C1 (stereo not shown) [5-[(3-cyanophenyl)methyl]-7-hexyl-5H,6H,7H,8H,9H,10H-cyclohepta[b]indole-4-carboxylic acid] | 1.26
10 | CCCCC1CCCCc2c1c1cccc(C(=O)O)c1n2Cc1cccc(C(N)=O)c1 (stereo not shown) [10-butyl-5-[(3-carbamoylphenyl)methyl]-5H,6H,7H,8H,9H,10H-cyclohepta[b]indole-4-carboxylic acid] | 1.14
11 | CCCCCCC1CCCc2c(n(Cc3ccc(C#N)o3)c3c(C(=O)O)cccc23)C1 (stereo not shown) [5-[(5-cyanofuran-2-yl)methyl]-7-hexyl-5H,6H,7H,8H,9H,10H-cyclohepta[b]indole-4-carboxylic acid] | 1.29
12 | CCCOC1CCCc2c1n(Cc1cccc(C(N)=O)c1)c1c(C(=O)O)cccc21 (stereo not shown) [9-[(3-carbamoylphenyl)methyl]-1-propoxy-2,3,4,9-tetrahydro-1H-carbazole-8-carboxylic acid] | 1.03
13 | CCCCC1CCCc2c(n(Cc3cccc(Cl)c3)c3c(C(=O)O)cccc23)C1 (stereo not shown) [7-butyl-5-[(3-chlorophenyl)methyl]-5H,6H,7H,8H,9H,10H-cyclohepta[b]indole-4-carboxylic acid] | 1.18
14 | CCCC1CCc2c1n(Cc1cccc(C#N)c1)c1c(C(=O)O)cccc21 (stereo not shown) [4-[(3-cyanophenyl)methyl]-3-propyl-1H,2H,3H,4H-cyclopenta[b]indole-5-carboxylic acid] | 1.38
15 | CCCCCC1CCCc2c1c1cccc(C(=O)O)c1n2Cc1cccc(C(N)=O)c1 (stereo not shown) [9-[(3-carbamoylphenyl)methyl]-4-pentyl-2,3,4,9-tetrahydro-1H-carbazole-8-carboxylic acid] | 1.12
16 | CCCCCCC1CCCc2c(n(Cc3ccccc3C(N)=O)c3c(C(=O)O)cccc23)C1 (stereo not shown) [5-[(2-carbamoylphenyl)methyl]-7-hexyl-5H,6H,7H,8H,9H,10H-cyclohepta[b]indole-4-carboxylic acid] | 0.97
17 | CCCCCCC1CCCc2c(n(Cc3cccc(Cl)c3)c3c(C(=O)O)cccc23)C1 (stereo not shown) [5-[(3-chlorophenyl)methyl]-7-hexyl-5H,6H,7H,8H,9H,10H-cyclohepta[b]indole-4-carboxylic acid] | 1.18
18 | CCC1CCCc2c1n(Cc1cccc(C(=O)O)c1)c1c(C(=O)O)cccc21 (stereo not shown) [9-[(3-carboxyphenyl)methyl]-1-ethyl-2,3,4,9-tetrahydro-1H-carbazole-8-carboxylic acid] | 1.09
19 | CCCCC1CCCc2c(n(Cc3cccc(C(=O)O)c3)c3c(C(=O)O)cccc23)C1 (stereo not shown) [7-butyl-5-[(3-carboxyphenyl)methyl]-5H,6H,7H,8H,9H,10H-cyclohepta[b]indole-4-carboxylic acid] | 0.95

Row | SMILES | fold induction at 10 µM
20 | CCCCC1CCCc2c(n(Cc3cccc(O)c3)c3c(C(=O)O)cccc23)C1 (stereo not shown) [7-butyl-5-[(3-hydroxyphenyl)methyl]-5H,6H,7H,8H,9H,10H-cyclohepta[b]indole-4-carboxylic acid] | 1.14
21 | CCC1CCCc2c1c1cccc(C(=O)O)c1n2Cc1cccc(C(=O)O)c1 (stereo not shown) [9-[(3-carboxyphenyl)methyl]-4-ethyl-2,3,4,9-tetrahydro-1H-carbazole-8-carboxylic acid] | 1.06
22 | CCCCC1CCCc2c(n(Cc3cccc(C#N)c3)c3c(C(=O)O)cccc23)C1 (stereo not shown) [7-butyl-5-[(3-cyanophenyl)methyl]-5H,6H,7H,8H,9H,10H-cyclohepta[b]indole-4-carboxylic acid] | 1.29
23 | CCCCC1CCc2c(c3cccc(C(=O)O)c3n2Cc2cccc(C(N)=O)c2)C1 (stereo not shown) [3-butyl-9-[(3-carbamoylphenyl)methyl]-2,3,4,9-tetrahydro-1H-carbazole-8-carboxylic acid] | 1.09
24 | CCCCC1CCCc2c(n(Cc3cccnc3)c3c(C(=O)O)cccc23)C1 (stereo not shown) [7-butyl-5-[(pyridin-3-yl)methyl]-5H,6H,7H,8H,9H,10H-cyclohepta[b]indole-4-carboxylic acid] | 1.21
25 | CCC1CCc2c(c3cccc(C(=O)O)c3n2Cc2cccc(C(N)=O)c2)C1 (stereo not shown) [9-[(3-carbamoylphenyl)methyl]-3-ethyl-2,3,4,9-tetrahydro-1H-carbazole-8-carboxylic acid] | 1.1
26 | CCCCC1CCCc2c(n(Cc3cccc(C)c3)c3c(C(=O)O)cccc23)C1 (stereo not shown) [7-butyl-5-[(3-methylphenyl)methyl]-5H,6H,7H,8H,9H,10H-cyclohepta[b]indole-4-carboxylic acid] | 1.32
27 | CCC1CCCc2c(n(Cc3cccc(C#N)c3)c3c(C(=O)O)cccc23)C1 (stereo not shown) [5-[(3-cyanophenyl)methyl]-7-ethyl-5H,6H,7H,8H,9H,10H-cyclohepta[b]indole-4-carboxylic acid] | 1.16
28 | CCCCCC1CCc2c(c3cccc(C(=O)O)c3n2Cc2cccc(C(N)=O)c2)C1 (stereo not shown) [9-[(3-carbamoylphenyl)methyl]-3-pentyl-2,3,4,9-tetrahydro-1H-carbazole-8-carboxylic acid] | 1.08
29 | CCCCCCC1CCCc2c(n(Cc3cccc(C(N)=O)c3)c3c(C(=O)O)cccc23)C1 (stereo not shown) [5-[(3-carbamoylphenyl)methyl]-7-hexyl-5H,6H,7H,8H,9H,10H-cyclohepta[b]indole-4-carboxylic acid] | 1.26
30 | CCCCCC1Cc2c(n(Cc3cccc(C(N)=O)c3)c3c(C(=O)O)cccc23)C1 (stereo not shown) [4-[(3-carbamoylphenyl)methyl]-2-pentyl-1H,2H,3H,4H-cyclopenta[b]indole-5-carboxylic acid] | 0.68
31 | CCCCC1CCCCc2c1c1cccc(C(=O)O)c1n2Cc1cccc(C#N)c1 (stereo not shown) [10-butyl-5-[(3-cyanophenyl)methyl]-5H,6H,7H,8H,9H,10H-cyclohepta[b]indole-4-carboxylic acid] | 1.24
32 | CCCC1CCCCc2c1c1cccc(C(=O)O)c1n2Cc1cccc(C(N)=O)c1 (stereo not shown) [5-[(3-carbamoylphenyl)methyl]-10-propyl-5H,6H,7H,8H,9H,10H-cyclohepta[b]indole-4-carboxylic acid] | 1.02
33 | CCCCC1CCc2c1n(Cc1cccc(C(N)=O)c1)c1c(C(=O)O)cccc21 (stereo not shown) [3-butyl-4-[(3-carbamoylphenyl)methyl]-1H,2H,3H,4H-cyclopenta[b]indole-5-carboxylic acid] | 1.15
34 | CCCCCCC1CCCc2c(n(Cc3ccc(C#N)cc3)c3c(C(=O)O)cccc23)C1 (stereo not shown) [5-[(4-cyanophenyl)methyl]-7-hexyl-5H,6H,7H,8H,9H,10H-cyclohepta[b]indole-4-carboxylic acid] | 0.94
35 | CCCCCOC1CCCc2c1n(Cc1cccc(C(N)=O)c1)c1c(C(=O)O)cccc21 (stereo not shown) [9-[(3-carbamoylphenyl)methyl]-1-(pentyloxy)-2,3,4,9-tetrahydro-1H-carbazole-8-carboxylic acid] | 1.09
36 | CCC1CCCCc2c1c1cccc(C(=O)O)c1n2Cc1cccc(C(N)=O)c1 (stereo not shown) [5-[(3-carbamoylphenyl)methyl]-10-ethyl-5H,6H,7H,8H,9H,10H-cyclohepta[b]indole-4-carboxylic acid] | 0.99
37 | CCCCCCC1CCCc2c(n(Cc3cccc(C(=O)O)n3)c3c(C(=O)O)cccc23)C1 (stereo not shown) [6-({4-carboxy-7-hexyl-5H,6H,7H,8H,9H,10H-cyclohepta[b]indol-5-yl}methyl)pyridine-2-carboxylic acid] | 0.96
